Consider one molecule from PubChem BioAssay AID1053159 (Broad Institute, 2014).

The subject of the experiment is HepG2 PCSK9 mRNA qRT-PCR, time course 0.5-28 h. Briefly: time-dependent decrease of PCSK9 transcript – cell-based, HepG2, RT-PCR, time course, mechanism study for Trib1 inducer project, late-stage follow-up (AID 1053159). The conditions noted are these: dose 2.5; stronger effect = lower value.

As for `CN1C(=O)c2cc(NC(=O)c3ccc(C(F)(F)F)cc3)ccc2OC[C@@H]2O[C@H](CC(=O)NC3Cc4ccccc4C3)CC[C@@H]21`, the relative PCSK9 expression was 19%.
